The experiment has as its target T1, CD81 antigen (Homo sapiens, UniProt P60033).
T1 sequence (P60033 whole entry): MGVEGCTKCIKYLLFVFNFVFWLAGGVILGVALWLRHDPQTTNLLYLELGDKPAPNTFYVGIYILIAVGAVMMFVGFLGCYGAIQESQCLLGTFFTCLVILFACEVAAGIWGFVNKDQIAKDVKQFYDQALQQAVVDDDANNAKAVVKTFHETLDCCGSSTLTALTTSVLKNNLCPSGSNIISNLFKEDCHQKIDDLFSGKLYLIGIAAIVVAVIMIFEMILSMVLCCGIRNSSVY
Nature of the experiment: Binding affinity to CD81 (unknown origin) assessed as […] rate constant by surface plasmon resonance assay. To be noted: read-out: kon (M-1-s-1). A general note: In SPR one partner is held on a chip, and binding of the other changes the refractive index at the surface.

A word on the kon: it is the second-order rate constant of association. Consider `C/C(=C\CC[C@]1(C)[C@@H](C(=O)O)C[C@H]1[C@](C)(O)C(=O)O)C(=O)O`, for which the association rate constant (kon) was determined as 2.53e+08 M⁻¹ s⁻¹.
Consider `CC(=O)[C@@H]1C[C@H](C(=O)O)[C@@]1(C)CC/C=C(\C)C(=O)O`, for which the on-rate (kon) stood at 2.02e+06 M⁻¹ s⁻¹.

For the origin of these results see BindingDB's records for doi:10.1016/j.bmc.2018.12.038 (Peking University, 2019).
